Reference: patent publication US9868744B2, “Heteroaromatic compounds and their use as dopamine D1 ligands” (PFIZER INC., priority 2014, dated 2018)
Like-named read-outs stand apart in the source and are kept apart here.

Target: Human D1 Receptor (Homo sapiens (Human), UniProt P21728)
Test: Human D1 receptor binding assay ([^3H]-SCH23390 competition)
Details: read-out: Human D1 Receptor Binding, Ki (nM), Geometric mean of 2-4 determinations (unless otherwise indicated)
Procedure: D1 binding assays were performed using over-expressing LTK human cell lines. […] These ligand and tissue concentrations were used in time course studies to determine linearity and equilibrium conditions for binding. […] The pellet was resuspended in assay buffer [50 mM Tris (pH 7.4@ RT) containing 4 mM MgSO4 and 0.5 mM EDTA]. […] Non-specific binding was determined by radioligand binding in the presence of a saturating concentration of (+)-Butaclamol (10 μM), a D1 antagonist. After a 30 minute incubation period at 37° C., assay samples were rapidly filtered through Unifilter-96 GF/B PEI-coated filter plates and rinsed with 50 mM Tris buffer (pH 7.4 at 4° C.). […] Ki values were calculated according to the Cheng-Prusoff equation: […]

Human D1 Receptor, sequence (P21728 whole entry): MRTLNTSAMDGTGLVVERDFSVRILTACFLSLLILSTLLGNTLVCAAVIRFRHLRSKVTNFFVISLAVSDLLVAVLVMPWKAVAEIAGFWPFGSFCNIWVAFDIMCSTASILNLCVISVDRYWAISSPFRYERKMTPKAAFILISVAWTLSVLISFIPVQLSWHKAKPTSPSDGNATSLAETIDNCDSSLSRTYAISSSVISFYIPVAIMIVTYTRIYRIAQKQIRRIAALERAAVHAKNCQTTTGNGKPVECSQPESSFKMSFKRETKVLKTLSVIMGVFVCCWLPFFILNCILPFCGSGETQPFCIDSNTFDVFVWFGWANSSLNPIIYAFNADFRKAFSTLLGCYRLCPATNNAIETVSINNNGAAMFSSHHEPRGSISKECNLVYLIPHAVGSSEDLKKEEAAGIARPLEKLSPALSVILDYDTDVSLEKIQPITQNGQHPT

Ki (competition with 0.5 nM [^3H]-SCH23390, over-expressing LTK human cell lines, 30 min at 37° C., values marked ^a are from a single determination) | SMILES | Ki
– | Cc1cc(Oc2ncnc3occc23)ccc1-c1c(C)ncnc1C [Example 1, 4-[4-(4,6-dimethylpyrimidin-5-yl)-3-methylphenoxy]furo[2,3-d]pyrimidine] | 166 nM
32.7 nM | Cc1cc(Oc2nccc3sncc23)ccc1-c1c(C)n[nH]c(=O)c1C [Example 10, 4,6-dimethyl-5-[2-methyl-4-([1,2]thiazolo[4,5-c]pyridin-4-yloxy)phenyl]pyridazin-3(2H)-one] | –
– | Cc1cc(Oc2nccc3[nH]cnc23)ccc1-c1c(C)ncc2nccn12 [Example 2, 4-[3-methyl-4-(6-methylimidazo[1,2-a]pyrazin-5-yl)phenoxy]-1H-imidazo[4,5-c]pyridine] | 374 nM
